Values of other authors in patent EP4066850A2, “PEPTIDES AND METHODS OF TREATING DYSTROPHY-RELATED DISORDERS USING THE SAME” (Bioincept LLC, priority 2017, dated 2018).

Details: IV infusion together with radiation; xerostomia treatment (Kouvaria et al 2007)

## NCCCNCCSP(=O)(O)O [Amifostine]
  side effects: serious side effects including fatal skin reaction
